Assays:
Male Fitch ferrets = test system: Male Fitch ferrets; design: species or system ferret; conditions: in vivo, sc
Description: Male Fitch ferrets (body weights 1.0-1.5 kg) were obtained from Marshall Farms. Ferrets were fasted overnight before experimentation. Apomorphine or a compound of the present invention was administrated subcutaneously; animals were placed individually in observation cages and the drug-induced emesis and signs of nausea were determined (by direct observation) for a period of 90 minutes following drug injection. Nausea was characterized by behaviors such as licking, gagging, backing, head burying, and intense abdominal grooming. Emesis was usually preceded by these behaviors and was characterized by rhythmic abdominal contractions which were associated with vomiting or retching movement.
Sterile saline was used as vehicle. Six animals were used per dose.

Wistar rats = test: Rat Penile Erection Model; assay type: in vivo; conditions: for Induced Penile Erection in Rats, Incidence (%): subcutaneous, animals with 1 or more erections in 60 minutes; for induced penile erections in rats (significance): subcutaneous administration, doses of 0.01 μmol/kg to 0.10 μmol/kg
Description: Wistar rats were used as a primary animal model to study penile erection in vivo. All experiments were carried out between 9:00 AM and 3:00 PM in a diffusely illuminated testing room with a red light. Animals were weighed and allowed to adapt to the testing room for 60 minutes before the beginning of experiments. Rats were placed individually in a transparent cage (20×30×30 cm) after drug injection.
(L)-Ascorbic acid in saline (1 mg/mL) was used as vehicle. Twelve animals were used per dose.

**Q.** Which results are given for `c1ccc(N2CCN(Cc3nc4ccccc4[nH]3)CC2)nc1` [2-[(4-pyridin-2-ylpiperazin-1-yl)methyl]-1H-benzimidazole]?
**A.** emesis in ferrets (in words) (Male Fitch ferrets): did not induce emesis; Induced Penile Erection in Rats, Incidence (%) (Wistar rats; dose 0.003 μmol/kg, Table 1): 25%; Induced Penile Erection in Rats, Incidence (%) (Wistar rats; dose 0.01 μmol/kg, Table 1): 50%; Induced Penile Erection in Rats, Incidence (%) (Wistar rats; dose 0.03 μmol/kg, Table 1): 83%; Induced Penile Erection in Rats, Incidence (%) (Wistar rats; dose 0.10 μmol/kg, Table 1): 58%; induced penile erections in rats (significance) (Wistar rats): statistically significant

**Q.** Which “Induced Penile Erection in Rats, Incidence (%)” value (“Induced Penile Erection … (%)” below) (Wistar rats; dose 0.01 μmol/kg, Table 2) does the source give for `Oc1ccc(N2CCN(Cc3nc4ccccc4[nH]3)CC2)nc1` [6-[4-(1H-benzimidazol-2-ylmethyl)piperazin-1-yl]pyridin-3-ol] here?
**A.** 42%

**Q.** What about the “Induced Penile Erection … (%)” value (Wistar rats; dose 0.03 μmol/kg, Table 2) of the same compound?
**A.** 58%

**Q.** What about the “Induced Penile Erection … (%)” value (Wistar rats; dose 0.1 μmol/kg, Table 2) of the same compound?
**A.** 58%

**Q.** What about the “Induced Penile Erection … (%)” value (Wistar rats; dose 0.3 μmol/kg, Table 2) of the same compound?
**A.** 33%

**Q.** And the “induced penile erections in rats (significance)” value (Wistar rats)?
**A.** statistically significant

**Q.** What about the melting point of the same compound?
**A.** 144 to 145 °C

**Q.** Which “incidence of rat penile erections” value (Wistar rats; positive control of Table 1, dose 0.1 μmol/kg) does the source give for `CN1CCc2cccc3c2[C@H]1Cc1ccc(O)c(O)c1-3` [Apomorphine, (6aR) 5,6,6a,7-tetrahydro-6-methyl-4H-dibenzo[de,g]quinoline-10,11-diol, reference compound] here?
**A.** 83%

**Q.** What about the “incidence of rat penile erections” value (Wistar rats; positive control of Table 2, dose 0.1 μmol/kg) of the same compound?
**A.** 93%

**Q.** With `c1cnc(N2CCN(Cc3nc4ccccc4[nH]3)CC2)nc1` [Example 2, 2-[(4-pyrimidin-2-ylpiperazin-1-yl)methyl]-1H-benzimidazole] as the compound, how does the melting point read?
**A.** 198 to 200 °C

**Q.** For `N#Cc1cccnc1N1CCN(Cc2nc3ccccc3[nH]2)CC1` [Example 4, 2-[4-(1H-benzimidazol-2-ylmethyl)piperazin-1-yl]nicotinonitrile], which melting point is on record?
**A.** 208 to 210 °C

**Q.** With `c1ccc2[nH]c(CN3CCN(c4nccs4)CC3)nc2c1` [Example 7, 2-{[4-(1,3-thiazol-2-yl)piperazin-1-yl]methyl}-1H-benzimidazole] as the compound, how does the melting point read?
**A.** 203 to 205 °C

**Q.** For `O=C(N1CCCC1)n1c(CN2CCN(c3ccccn3)CC2)nc2ccccc21` [Example 9, 2-[(4-pyridin-2-ylpiperazin-1-yl)methyl]-1-(pyrrolidin-1-ylcarbonyl)-1H-benzimidazole], which melting point is on record?
**A.** 120 to 121 °C

**Q.** For `CN(C)C(=O)n1c(CN2CCN(c3ccccn3)CC2)nc2ccccc21` [Example 10, N,N-dimethyl-2-[(4-pyridin-2-ylpiperazin-1-yl)methyl]-1H-benzimidazole-1-carboxamide], which melting point is on record?
**A.** 174 to 176 °C

**Q.** Which melting point does the source give for `N#Cc1ccccc1N1CCN(Cc2nc3ccccc3[nH]2)CC1` [Example 12, 2-[4-(1H-benzimidazol-2-ylmethyl)piperazin-1-yl]benzonitrile] here?
**A.** 236 to 237 °C

**Q.** For `Clc1ccccc1N1CCN(Cc2nc3ccccc3[nH]2)CC1` [Example 13, 2-{[4-(2-chlorophenyl)piperazin-1-yl]methyl}-1H-benzimidazole], which melting point is on record?
**A.** 245 to 246 °C

**Q.** With `Fc1ccccc1N1CCN(Cc2nc3ccccc3[nH]2)CC1` [Example 14, 2-{[4-(2-fluorophenyl)piperazin-1-yl]methyl}-1H-benzimidazole] as the compound, how does the melting point read?
**A.** 262 to 264 °C

**Q.** Which melting point does the source give for `Oc1ccc(N2CCN(Cc3nc4ccccc4[nH]3)CC2)cc1` [Example 17, 4-[4-(1H-benzimidazol-2-ylmethyl)piperazin-1-yl]phenol] here?
**A.** 206 to 209 °C

**Q.** Which melting point does the source give for `CSc1ccccc1N1CCN(Cc2nc3ccccc3[nH]2)CC1` [Example 18, 2-({4-[2-(methylthio)phenyl]piperazin-1-yl}methyl)-1H-benzimidazole] here?
**A.** 214 to 216 °C

**Q.** With `CCOc1ccccc1N1CCN(Cc2nc3ccccc3[nH]2)CC1` [Example 19, 2-{[4-(2-ethoxyphenyl)piperazin-1-yl]methyl}-1H-benzimidazole] as the compound, how does the melting point read?
**A.** 95 to 100 °C

**Q.** Which melting point does the source give for `Oc1ccccc1N1CCN(Cc2nc3ccccc3[nH]2)CC1` [Example 20, 2-[4-(1H-benzimidazol-2-ylmethyl)piperazin-1-yl]phenol] here?
**A.** 208 to 216 °C

**Q.** With `CC1CN(c2ccccn2)CCN1Cc1nc2ccccc2[nH]1` (stereo not drawn) [Example 24, 2-[(2-methyl-4-pyridin-2-ylpiperazin-1-yl)methyl]-1H-benzimidazole] as the compound, how does the melting point read?
**A.** 207 to 209 °C

**Q.** With `C[C@H]1CN(c2ccccn2)CCN1Cc1nc2ccccc2[nH]1` [Example 25, 2-{[(2S)-2-methyl-4-pyridin-2-ylpiperazin-1-yl]methyl}-1H-benzimidazole] as the compound, how does the melting point read?
**A.** 149 to 151 °C

**Q.** With `C[C@@H]1CN(c2ccccn2)CCN1Cc1nc2ccccc2[nH]1` [Example 26, 2-{[(2R)-2-methyl-4-pyridin-2-ylpiperazin-1-yl]methyl}-1H-benzimidazole] as the compound, how does the melting point read?
**A.** 151 to 153 °C

**Q.** With `Fc1cccnc1N1CCN(Cc2nc3ccccc3[nH]2)CC1` [Example 28, 2-{[4-(3-fluoropyridin-2-yl)piperazin-1-yl]methyl}-1H-benzimidazole] as the compound, how does the melting point read?
**A.** 210 to 212 °C

Reference: patent US20020169166A1, “Benzimidazoles that are useful in treating sexual dysfunction” (priority 2001, published 2002)
